Assay [1] deals with MAPK14 (human) (UniProt Q16539). Put plainly: Antiproliferation Assay (U937 Cells).
For assay [2], the target named is MAPK14 (UniProt Q16539). Put plainly: MAPK14 Inhibition (PHAS-I).
Assay [3] addresses MAPK14 (UniProt Q16539). Put plainly: MAPK14 inhibition (EGFRP).
Assay [4] relates to MAPK14 (Balb/c mice). Nature of the assay: LPS Induced TNF-alpha Production (Balb/c Mice). The settings on record: dose or concentration not given here.

For 8 molecules, IC50 and inhibition results are on record in the Kinase Knowledgebase extract (Sharma et al. 2016).

Sequence of MAPK14 (Q16539 whole entry, looked up): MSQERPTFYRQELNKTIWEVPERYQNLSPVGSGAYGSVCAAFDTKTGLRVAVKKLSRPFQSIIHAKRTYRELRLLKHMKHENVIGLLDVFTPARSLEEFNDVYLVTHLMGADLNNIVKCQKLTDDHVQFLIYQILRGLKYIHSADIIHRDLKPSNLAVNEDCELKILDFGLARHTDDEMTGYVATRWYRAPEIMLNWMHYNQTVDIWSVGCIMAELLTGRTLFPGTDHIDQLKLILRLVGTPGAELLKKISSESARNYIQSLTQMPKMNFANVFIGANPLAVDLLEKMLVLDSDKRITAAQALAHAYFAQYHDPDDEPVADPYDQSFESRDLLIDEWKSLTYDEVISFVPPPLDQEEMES
Sequence of MAPK14 (human) (Q16539 whole entry, looked up): as above

For orientation: IC50 means the concentration needed to halve the response being measured. In assay [1], `CNC(=O)Nc1n[nH]c(-c2ccncc2)c1-c1ccc(F)cc1` returned an IC50 of 10 µM.
With `Fc1ccc(-c2cn(CCN3CCOCC3)nc2-c2ccncc2)cc1.Fc1ccc(-c2cnn(CCN3CCOCC3)c2-c2ccncc2)cc1`, the IC50 is 0.86 µM in assay [2], over 10 µM in assay [3] and 22 µM in assay [1].
The corresponding values for `OCCn1cc(-c2ccc(F)cc2)c(-c2ccncc2)n1.OCCn1ncc(-c2ccc(F)cc2)c1-c1ccncc1` are 0.695 µM, 10 µM and 40 µM.
Molecule `NS(=O)(=O)Nc1n[nH]c(-c2ccc(F)cc2)c1-c1ccncc1` showed an IC50 in assay [1] of 10 µM.
What is called inhibition is how much of the control response was suppressed. High values mean a response far below the control, low ones a response near the control. On to `CN1CCC(n2cc(-c3ccc(F)cc3)c(-c3ccncc3)n2)CC1.CN1CCC(n2ncc(-c3ccc(F)cc3)c2-c2ccncc2)CC1`, for which the IC50 is 5.9 µM in assay [2] and 0.75 µM in assay [3]. The inhibition in assay [4] was 32%.
Consider `Cn1nc(-c2ccncc2)c(-c2ccc(Cl)cc2)c1N`, for which, in assay [1], the IC50 is 10 µM.
Consider `CN(C)CCn1cc(-c2ccc(F)cc2)c(-c2ccncc2)n1.CN(C)CCn1ncc(-c2ccc(F)cc2)c1-c1ccncc1`, for which the half-maximal inhibitory concentration (IC50) in assay [2] worked out at 0.941 µM; in assay [3], 10 µM; in assay [1] it was 5 µM.
`Cc1n[nH]c(-c2ccncc2)c1-c1ccccc1`: in assay [1], the IC50 turned out to be 10 µM.
